According to patent US20220313622A1, “PHYTOCANNABINOIDS FOR PREVENTING OR TREATING NON-ALCOHOLIC FATTY LIVER DISEASE, DYSLIPIDEMIA, AND TYPE 2 DIABETES” (YISSUM RESEARCH DEVELOPMENT COMPANY OF THE HEBREW …, priority 2019, published 2022):

Columns and labels:
[1] = system: human hepatoma HepG2 cells; experiment: Oleate:Palmitate-induced lipid accumulation in hepatocytes (Nile-Red); assay type: cell-based; conditions: CBD 20 μM; 0.3 mM oleate:palmitate 2:1; 24 hr; FIG. 1
Method: To test whether CBG and/or CBD have the ability to reduce lipid accumulation in hepatocytes, we have utilized an in vitro model of fat accumulation in hepatocytes. Briefly, human hepatoma HepG2 cells were maintained at 37° C. in 5% CO2 in DMEM medium supplemented with 10% FCS, 2 mM 1-glutamine, 1 mM sodium pyruvate, 100 U/mL penicillin and […] streptomycin. Free fatty acids (2:1, molar ratio, oleic and palmitic acids) were mixed with bovine serum albumin (BSA). Cells were incubated with fatty acid-BSA complex in FCS-free culture medium at 0.3 mM final concentration of fatty acid and 1% of BSA. Control cell cultures were incubated with medium containing the vehicle. Compounds were tested in a range of concentrations (as detailed in each figure) in the presence/absence of fatty acids. The synergistic effect between two compounds was also tested once validating their individual effect. After 24 hr of incubation with the compounds, the cells were washed, incubated with 1 μg/mL mixture of Nile-Red/Hoechst solution for 15 mins at 37° C. protected from light. Fluorescence was measured by the Cytation-3 plate reader at ex:488 nm/em:550 for Nile-Red and Hoechst, respectively. Results were normalized to total protein levels of each well, and presented as a change in the accumulation of lipids in comparison with Vehicle-treated group.

[2] = system: high-fat diet-induced obese mice; experiment: Hepatic steatosis in high-fat diet-induced obese mice; assay type: in vivo, mouse; conditions: 28 days ip, CBG 25 mg/kg/day; for HFD-induced hepatic steatosis (liver triglyceride levels, fat vacuoles and ballooning in hepatocytes): CBD 10 mg/kg/day, alone or combined, FIGS. 5A, B
Method: (§1) Next, the inventors tested whether the isolated and combined effect of phytocannabinoids has the ability to reverse fatty liver (hepatic steatosis) and improve metabolism in high-fat diet-induced obese mouse. Briefly, six weeks old, male C57Bl/6J mice were fed ad libitum with a high-fat diet (HFD; D12492; 60% of calories from fat, 20% from protein, and 20% from carbohydrates; Research Diets) or a mouse standard diet (STD; NIH no. 31 rodent diet) for 14 weeks. Then, the mice were treated for 28 days with CBD (10 mg/kg/day, ip), CBG (25 mg/kg/day, ip), CBD+CBG (10 mg/kg/day+25 mg/kg/day, ip respectively) or vehicle (EtOH:cremophor:saline; 1:1:18). The mouse groups were labeled as defined here: mice on a STD treated with vehicle (STD-Veh), mice on a HFD treated with vehicle (HFD-Veh), mice on a HFD treated with CBD (HFD-CBD), mice on a HFD treated with CBG (HFD-CBG), and mice on a HFD treated with CBD+CBG (HFD-CBD+CBG).
Hepatic steatosis (Fatty liver) was measured by (i) quantifying the amount of triglycerides and cholesterol in the liver by using a specific lipid extraction method followed by colorimetric chemical analyses using the Cobas C111 Chemistry Analyzer (Roche, Germany), and (ii) evaluating the reversal of fatty liver by histology. Briefly, paraffin-embedded liver sections (5 tiM) were be used to evaluate hepatic morphology (using H & E staining).

mice = conditions: cited from earlier work
rats on high-fat diets = conditions: cited from earlier work
[3] = system: high-fat diet-induced obese mice; experiment: Glucose and insulin homeostasis in high-fat diet-induced obese mice; assay type: in vivo, mouse; conditions: 28 days ip, CBG 25 mg/kg/day; for HFD-induced hyperglycemia (fasting blood glucose levels) / glucose tolerance (intraperitoneal glucose tolerance test) / serum insulin levels (hyperinsulinemia): CBD 10 mg/kg/day; for HFD-induced hyperglycemia (fasting blood glucose levels) / glucose tolerance (intraperitoneal glucose tolerance test): alone or combined; for HFD-induced hyperglycemia (fasting blood glucose levels): FIG. 6A; for glucose tolerance (intraperitoneal glucose tolerance test): FIG. 6B, C; for serum insulin levels (hyperinsulinemia): FIG. 7A
Method: as §1
Glucose and insulin homeostasis was assessed by (i) measuring fasting blood glucose (Elite glucometer, Bayer, Germany) and serum insulin (Ultra-Sensitive Mouse Insulin ELISA kit, EMD Millipore, MA) levels, (ii) evaluating Homeostatic Model Assessment for Insulin Resistance (HOMA-IR), and (iii) performing intraperitoneal glucose tolerance test.

[4] = system: high-fat diet-induced obese mice; experiment: Lipid balance (circulating triglycerides and cholesterol) in high-fat diet-induced obese mice; assay type: in vivo, mouse; conditions: 28 days ip; for serum triglycerides: CBD 10 mg/kg/day, FIG. 8A
Method: as §1
Lipid balance was assessed by evaluating the levels of low-density lipoprotein (LDL)-cholesterol, total cholesterol and triglycerides by using Cobas C111 Chemistry Analyzer (Roche, Germany).

[5] = system: high-fat diet-induced obese mice; experiment: Antiobesity effect (fat and lean mass, EchoMRI) in high-fat diet-induced obese mice; assay type: in vivo, mouse; conditions: 28 days ip; CBG 25 mg/kg/day; FIG. 9B, C
Method: as §1
Antiobesity effect was assessed by measuring body weight. Total fat and lean masses were determined at the end of the treatment by EchoMRI-100 (Echo Medical Systems LLC, Houston Tex.).

obese mice = conditions: cited from earlier work

Compound	lipid accumulation in hepatocytes [1]	HFD-induced hepatic steatosis (liver triglyceride levels, fat vacuoles and ballooning in hepatocytes) [2]	development of alcohol-induced hepatosteatosis (mice)	weight gain (rats on high-fat diets)	HFD-induced hyperglycemia (fasting blood glucose levels) [3]	glucose tolerance (intraperitoneal glucose tolerance test) [3]	serum insulin levels (hyperinsulinemia) [3]	serum triglycerides ([4]; CBG 25 mg/kg/day)	liver cholesterol levels ([2]; FIG. 5C)	fat mass [5]	lean mass [5]	HOMA-IR ([3]; FIG. 7B)	total circulating cholesterol levels ([4]; CBG 25 mg/kg/day alone or with CBD 10 mg/kg/day, FIG. 8B)	LDL-Cholesterol levels ([4]; CBG 25 mg/kg/day, FIG. 8C)	insulin sensitivity (obese mice)	triglyceride (TG) accumulation within the livers (obese mice)
C=C(C)[C@@H]1CCC(C)=C[C@H]1c1c(O)cc(CCCCC)cc1O [CBD, cannabidiol, reference compound]	significantly reduce lipid accumulation	significantly attenuated	inhibits	inhibits weight gain	significantly normalized	significant improvement	ineffective in reducing hyperinsulinemia	Reduction								
CCCCCc1cc(O)c(C/C=C(\C)CCC=C(C)C)c(O)c1 [CBG, cannabigerol]		significantly attenuated			significantly normalized	significant improvement	trend toward reduction	Reduction	trend toward reduction	significant reduction	increased	normalization	significantly reduced	significant reduction		
CCCc1cc(O)c2c(c1)OC(C)(C)[C@@H]1CCC(C)=C[C@@H]21 [THCV, Δ^9-tetrahydrocannabivarin]															improves insulin sensitivity	decreases
